# In ChEMBL document CHEMBL3352801, “Synthesis and lipid-lowering evaluation of 3-methyl-1H-purine-2,6-dione derivatives as potent and orally available anti-obesity agents” (Eur J Med Chem, 2014):
# The source made the active and inactive calls. The calls are words filed in the database; no cut-off is given here.
# What was measured:
# 3T3-L1 = assay: Inhibition of triglyceride accumulation in mouse 3T3L1 cells at 10 uM after 24 hrs; assay type: functional; settings: for inhibition at 10 µM: 3T3-L1, 24 h
# Mus musculus [1] = assay: Antiobesity activity in diet-induced obese C57Bl/6 mouse assessed as increase in HDL level at 50 mg/kg/day, po for 4 weeks administered with high-fat diet (reference value: 0.60 +/- 0.17 mM); assay type: functional
# Mus musculus [2] = assay: Antiobesity activity in diet-induced obese C57Bl/6 mouse assessed as change in insulin level at 50 mg/kg/day, po for 4 weeks administered with high-fat diet (reference value: 11.85 +/- 2.6 mU); assay type: functional
# Mus musculus [3] = assay: Antiobesity activity in diet-induced obese C57Bl/6 mouse assessed as reduction in LDL level at 50 mg/kg/day, po for 4 weeks administered with high-fat diet (reference value: 0.14 +/- 0.07 mM); assay type: functional
# Mus musculus [4] = assay: Antiobesity activity in diet-induced obese C57Bl/6 mouse assessed as loss of epididymal fat mass at 50 mg/kg/day, po for 4 weeks administered with high-fat diet; assay type: functional
# Mus musculus [5] = assay: Decrease in insulin resistance in diet-induced obese C57Bl/6 mouse assessed as induction of insulin secretion at 50 mg/kg/day, po for 4 weeks by insulin tolerance test; assay type: functional, organism-based
# Mus musculus [6] = assay: Antiobesity activity in diet-induced obese C57Bl/6 mouse assessed as reduction in body weight at 50 mg/kg/day, po for 4 weeks administered with high-fat diet; assay type: functional; parameters: scale not given: the % may be the effect or the level left
# Mus musculus [7] = assay: Antiobesity activity in diet-induced obese C57Bl/6 mouse assessed as reduction in triglyceride level at 50 mg/kg/day, po for 4 weeks administered with high-fat diet (reference value: 0.93 +/- 0.09 mM); assay type: functional
# Mus musculus [8] = assay: Antiobesity activity in diet-induced obese C57Bl/6 mouse assessed as reduction in fasting blood glucose at 50 mg/kg/day, po for 4 weeks administered with high-fat diet (reference value: 5.0 +/- 1.30 mM); assay type: functional
# Mus musculus [9] = assay: Antiobesity activity in diet-induced obese C57Bl/6 mouse assessed as reduction in FFA level at 50 mg/kg/day, po for 4 weeks administered with high-fat diet (reference value: 19.55 +/- 1.57 ng/L); assay type: functional
# Rattus norvegicus [10] = assay: Acute toxicity in Sprague-Dawley rat assessed as change in body weight at 2.5 g/kg, po as single dose measured after 7 days; assay type: organism-based; settings: in vivo, 2500 mg/kg, 168 h
# Mus musculus [11] = assay: Antiobesity activity in diet-induced obese C57Bl/6 mouse assessed as reduction in hepatic triglyceride level at 50 mg/kg/day, po for 4 weeks administered with high-fat diet by Oil Red O staining-based histological method; assay type: functional; parameters: scale not given: the % may be the effect or the level left
# Mus musculus [12] = assay: Increase in glucose tolerance in diet-induced obese C57Bl/6 mouse at 50 mg/kg/day, po for 4 weeks by oral glucose tolerance test; assay type: functional, organism-based
# Mus musculus [13] = assay: Antiobesity activity in diet-induced obese C57Bl/6 mouse assessed as loss of liver weight at 50 mg/kg/day, po for 4 weeks administered with high-fat diet; assay type: functional
# Mus musculus [14] = assay: Antiobesity activity in diet-induced obese C57Bl/6 mouse assessed as reduction in lipid droplets in liver at 50 mg/kg/day, po for 4 weeks administered with high-fat diet by Oil Red O staining-based histological method; assay type: functional, organism-based
# Mus musculus [15] = assay: Toxicity in diet-induced obese C57Bl/6 mouse assessed as change in food intake at 50 mg/kg/day, po for 4 weeks administered with high-fat diet; assay type: organism-based; parameters: route oral; settings: in vivo, 672 h
# Mus musculus [16] = assay: Toxicity in diet-induced obese C57Bl/6 mouse assessed as change in AST level at 50 mg/kg/day, po for 4 weeks administered with high-fat diet (reference value: 125.00 +/- 35.00 U/L); assay type: organism-based; parameters: route oral; settings: in vivo, 672 h
# Rattus norvegicus [17] = assay: Acute toxicity in Sprague-Dawley rat assessed as mortality at 2.5 g/kg, po as single dose measured after 7 days; assay type: organism-based; settings: in vivo, 2500 mg/kg, 168 h
# Mus musculus [18] = assay: Antiobesity activity in diet-induced obese C57Bl/6 mouse assessed as reduction in HOMA-IR value at 50 mg/kg/day, po for 4 weeks administered with high-fat diet (reference value: 3.06 +/- 0.85 no_unit); assay type: functional
# Rattus norvegicus [19] = assay: Acute toxicity in Sprague-Dawley rat assessed as clinical signs at 2.5 g/kg, po as single dose measured after 7 days; assay type: organism-based; settings: in vivo, 2500 mg/kg, 168 h
# Mus musculus [20] = assay: Antiobesity activity in diet-induced obese C57Bl/6 mouse assessed as reduction in fat accumulation in liver at 50 mg/kg/day, po for 4 weeks administered with high-fat diet by Oil Red O staining-based histological method; assay type: functional, organism-based
# Mus musculus [21] = assay: Toxicity in diet-induced obese C57Bl/6 mouse assessed as change in ALT level at 50 mg/kg/day, po for 4 weeks administered with high-fat diet (reference value: 33.00 +/- 18.23 U/L); assay type: organism-based; parameters: route oral; settings: in vivo, 672 h
smiles,measurement,setting,value
COc1ccc(Cn2c(=O)c3[nH]c(-c4ccc(OCCN(C)c5ccccn5)cc4)nc3n(C)c2=O)cc1,inhibition,3T3-L1,inactive
CCOC(=O)Cn1c(=O)c2c(nc(-c3ccc(OCCN(C)c4ccccn4)cc3)n2COC(=O)C(C)(C)C)n(C)c1=O,inhibition,3T3-L1,inactive
CCCn1c(-c2ccc(OCCN(C)c3ccccn3)cc2)nc2c1c(=O)n(Cc1ccccc1C#N)c(=O)n2C,Activity,Mus musculus [1],0.96 mM
same,Activity,Mus musculus [2],12.04 mU
same,Activity,Mus musculus [3],0.16 mM
same,Activity,Mus musculus [4],4.76%
same,Activity,Mus musculus [5],inactive
same,Activity,Mus musculus [6],7.64%
same,Activity,Mus musculus [7],1.15 mM
same,Activity,Mus musculus [8],7.25 mM
same,Activity,Mus musculus [9],24.43 ng/L
same,Activity,Rattus norvegicus [10],Non-toxic
same,Activity,Mus musculus [11],5.15%
same,Activity,Mus musculus [12],inactive
same,Activity,Mus musculus [13],12.8%
same,Activity,Mus musculus [14],inactive
same,inhibition at 10 µM,3T3-L1,51.1%
same,Activity,Mus musculus [15],Non-toxic
same,Activity,Mus musculus [16],150 U/L
same,Activity,Rattus norvegicus [17],Non-toxic
same,Activity,Mus musculus [18],3.99
same,Activity,Rattus norvegicus [19],Non-toxic
same,Activity,Mus musculus [20],Active
same,Activity,Mus musculus [21],86 U/L
CC(C)=CCn1c(-c2ccc(OCCN(C)c3ccccn3)cc2)nc2c1c(=O)n(Cc1ccccc1C#N)c(=O)n2C,inhibition,3T3-L1,inactive
C=CCn1c(-c2ccc(OCCN(C)c3ccccn3)cc2)nc2c1c(=O)n(Cc1ccc(OC)cc1)c(=O)n2C,inhibition,3T3-L1,inactive
NC(=O)c1ncn([C@@H]2O[C@H](CO)[C@@H](O)[C@H]2O)c1N [ACADESINE],inhibition at 10 µM,3T3-L1,51%
CCCn1c(=O)c2c(nc(-c3ccc(OCCN(C)c4ccccn4)cc3)n2CC)n(C)c1=O,inhibition,3T3-L1,inactive
C=CCn1c(-c2ccc(OCCN(C)c3ccccn3)cc2)nc2c1c(=O)n(Cc1ccccc1C#N)c(=O)n2C,inhibition,3T3-L1,inactive
CN(CCOc1ccc(-c2nc3c(c(=O)n(Cc4ccccc4C#N)c(=O)n3C)n2CC(=O)O)cc1)c1ccccn1,inhibition,3T3-L1,inactive
CN(CCOc1ccc(-c2nc3c(c(=O)n(Cc4ccccc4C#N)c(=O)n3C)n2C)cc1)c1ccccn1,inhibition,3T3-L1,inactive
CN(CCOc1ccc(-c2nc3c(c(=O)n(CC(=O)O)c(=O)n3C)n2CC(=O)O)cc1)c1ccccn1,inhibition,3T3-L1,Active
CCCn1c(=O)c2[nH]c(-c3ccc(OCCN(C)c4ccccn4)cc3)nc2n(C)c1=O,inhibition,3T3-L1,inactive
CC(C)Cn1c(-c2ccc(OCCN(C)c3ccccn3)cc2)nc2c1c(=O)n(Cc1ccccc1C#N)c(=O)n2C,inhibition,3T3-L1,inactive
CCn1c(-c2ccc(OCCN(C)c3ccccn3)cc2)nc2c1c(=O)n(Cc1ccc(OC)cc1)c(=O)n2C,inhibition,3T3-L1,inactive
CCOC(=O)CCCn1c(-c2ccc(OCCN(C)c3ccccn3)cc2)nc2c1c(=O)n(Cc1ccccc1C#N)c(=O)n2C,inhibition,3T3-L1,inactive
CN(CCOc1ccc(-c2nc3c([nH]2)c(=O)n(CC(=O)O)c(=O)n3C)cc1)c1ccccn1,inhibition,3T3-L1,inactive
